From patent US9250240B2, “Immunoreactive Ehrlichia p120/p140 epitopes and uses thereof” (Research Development Foundation, priority 2009, dated 2016) come the findings set out here.

For assay [1], the system named is E. chaffeensis antibodies in HME patient sera. Nature of the assay: ELISA evaluation of E. chaffeensis immunodeterminants for serologic diagnosis of HME. The class given is binding, human. As to the method:
ELISA. For epitope mapping, an ELISA was performed as previously described (Luo et al., 2009). For serologic diagnosis evaluation, an Immobilizer amino plate (Nunc, Roskilde, Denmark) was used to increase the signal-to-noise ratio. Immobilizer amino plates were coated with synthetic peptides or recombinant proteins (0.5 μg/well; 50 μl) suspended in 100 mM sodium carbonate buffer (pH 9.6) and incubated with gentle agitation at room temperature for 1 to 2 h or overnight at 4° C. The wells were washed four times with 300 μl phosphatebuffered saline containing 0.05% (vol/vol) Tween 20 (PBST; pH 7.2) by a plate washer (SkanWasher 400; Molecular Devices, Sunnyvale, Calif.). Dog or human sera diluted (1:100 or 1:200, respectively) in PBST were added to each well (50 μl) and incubated at room temperature for 1 h. The plates were washed again, and 50 μl alkaline phosphatase-labeled goat anti-dog or -human IgG(H+L) secondary antibody (Kirkegaard & Perry Laboratories, Gaithersburg, Md.) diluted (1:5,000) in PBST was added and incubated at room temperature for 1 h. After the addition of substrate (BluePhos; Kirkegaard & Perry Laboratories), plates were incubated in the dark for 30 min, color development was determined on a microplate reader (VersaMax; Molecular Devices, Sunnyvale, Calif.) at A650, and data were analyzed by SoftMax Pro version 4.0 (Molecular Devices). Optical density (OD) readings represent the mean OD value for three wells (±standard deviations) after subtracting the OD value of the negative control wells. All sera negative for E. chaffeensis by IFA had readings of <0.05 OD unit; therefore, a positive sample threshold was set at >0.1 OD unit. In addition, a reading of 0.1 to 0.5 OD unit was considered a weak positive, and a reading of >0.5 OD unit was considered a strong positive. IFA. The anti-E. chaffeensis antibody status in HME patient sera was determined as described previously (McBride et al., 2003). […] The statistical differences between experimental groups were assessed with the two-tailed Student t test, and significance was indicated by a P value of <0.05. […]

Assay [2] concerns antibodies in anti-E. canis dog sera. Nature of the assay: ELISA of overlapping synthetic peptides spanning the E. canis p140 repeat unit. Type of assay: binding. The conditions noted are these: four anti-E. canis sera from naturally infected dogs (nos. 2160, 6, 10, 18). As to the method:
ELISA. Enzyme-linked immunosorbent assay (ELISA) plates (MaxiSorp; Nunc, Roskilde, Denmark) were coated (0.5 μg/well; 50 μl) with recombinant proteins or synthetic peptides suspended in phosphate-buffered saline (pH 7.4). Proteins and peptides were absorbed for 1 h at room temperature with gentle agitation, and subsequently washed thrice with 200 μl Tris-buffered saline containing 0.2% Tween 20 (TBST). Plates were blocked with 100 μl 10% equine serum (Sigma) in TBST for 1 h at room temperature with agitation, and washed. Convalescent dog or human sera diluted (1:100 or 1:200, respectively) in 10% equine serum-TBST were added to each well (50 μl) and incubated at room temperature for 1 h with gentle agitation. […] The plates were incubated in the dark for 30 min with agitation, and color development was determined on a microplate reader (VersaMax; Molecular Devices, Sunnyvale, Calif.) at A650 and data analyzed by SoftmaxPro v4.0 (Molecular Devices). Optical density (OD) readings represent the mean OD for three wells (±standard deviations) after subtracting the OD value of the buffer-only wells. A reading >0.2 OD unit above the negative control absorbance was considered positive for all samples. In addition, a reading 0.2-0.5 OD unit above the control absorbance was considered a weak positive, and a reading >0.5 OD unit above the control absorbance was considered a strong positive. […]

[3] abbreviates: 31 HME patient sera (IFA titers 64 to 8192), positive = 0.1 OD unit above negative control.

No end group written: not given here.

Turning to “TRP32 peptides: equal (w:w) mixture of TRP32-R3 and TRP32-R4 peptides (chain 1 SDLHGSFSVELFDPFKEAVQLGNDLQQSSD; chain 2 SDSHEPSHLELPSLSEEVIQLESDLQQSSN; not fully specified)”, in assay [1] (setting [3]), the “% of patients with detectable antibodies” value is 87.1% and the “No. of patients with detectable antibodies” value stood at 27. In addition, the “specificity for diagnosing HME” value in assay [1] (as worded in the summary) came to 87.1%.
Regarding “p140R-3: 11-mer overlapping synthetic peptide of the E. canis p140 repeat unit (SKEESTPEVKA)”, in assay [2], the “Immunoreactivity by ELISA” value is on record as “virtually nonreactive”.
